From US20240325369A1 (priority 2021, published 2024)
Several values for one entry are separate records, joined by “and”; a condition that tells them apart may be missing. Equal values may be shown once. Read-outs that look alike come from different tables or passages of the source.

Tested on: metastatic castration-resistant prostate cancer (mCRPC) with DNA-repair anomalies
Method: The planned sample size was approximately 120 subjects with measurable disease who were biomarker-positive (approximately 75 subjects with DNA repair anomalies in BRCA [BRCA1 or BRCA2] and approximately 45 subjects with biallelic DNA-repair anomalies in non-BRCA [ATM, FANCA, PALB2, CHEK2, BRIP1, or HDAC2]).
Efficacy objectives were evaluated for subjects meeting the biomarker selection criteria described in the protocol. All subjects were monitored for safety during the study period, and up to 30 days after the last dose of study drug. Treatment continued until disease progression, unacceptable toxicity, death, or termination of the study by the sponsor.
Diagnosis and Main Criteria for Inclusion: The target population consisted of male subjects over the age of 18 years with mCRPC and DNA-repair anomalies (biallelic mutations and germline pathogenic mutations only for BRCA1 or BRCA2 mutations) who had received at least 1 prior taxane-based chemotherapy and at least 1 prior AR targeted therapy (second-generation or later). Subjects were asked to provide a tumor tissue sample (archival or recently collected, if available), and a blood sample for analysis of DNA-repair anomalies using a sponsor-validated assay.
Criteria for Evaluation: Efficacy assessments included chest, abdomen, and pelvis CT or MRI scans and whole-body bone scans (^99mTc) to evaluate objective response and disease progression.
The primary endpoint was ORR and summarized for the BRCA analysis set along with the 95% 2-sided exact CI. In addition, the counts and percentage of subjects in each response category (CR. PR, etc.) were tabulated. ORR in non-BRCA subjects was analyzed in the same way.
Descriptive summaries of CTC response were generated for BRCA and non-BRCA analysis sets, measurable and non-measurable subgroups and tabulated with its 2-sided 95% exact CI. Waterfall plots of percent change in CTC were also presented, showing the percentage change in CTC counts from baseline to 8 weeks, as well as maximal CTC count declines. All time to event secondary endpoints were evaluated using Kaplan-Meier method for BRCA and non-BRCA analysis sets. Median time to event and the corresponding 95% CI were provided. Descriptive summaries were provided for BRCA and non-BRCA analysis sets.
Time to degradation was determined using the following meaningful change threshold values: FACT-P Total (10-point reduction from baseline), EQ-5D-5L Index (0.09-point reduction from baseline). EQ-5D-5L VAS (10-point reduction from baseline), and BPI SF worst pain intensity item (30% reduction from baseline).
The primary endpoint was ORR, defined as the proportion of subjects with BRCA DNA-repair anomalies and measurable disease whose best response was either CR or PR as defined by RECIST 1.1 (Eisenhauer et al 2009) and who had no evidence of bone progression according to the PCWG3 criteria (Scher et al 2016).
ORR final analysis was performed approximately 6 months from Cycle 1 Day 1 of the last subject with a BRCA DNA-repair anomaly and measurable disease. Objective response as determined by investigator assessment was considered as the primary analysis.
Subjects who discontinued the study without a response assessment were considered as non-responders in the analysis. The objective response rate was calculated and its 2-sided 95% exact CI presented. In addition, the counts and percentage of subjects in each response category (CR, PR, etc.) were tabulated.
The following analyses of CTC response were performed for BRCA and non-BRCA analysis sets, measurable and non-measurable subgroups: • Descriptive summaries • CTC response rate was tabulated with its 2-sided 95% exact CI
All time to event secondary endpoints were evaluated using Kaplan-Meier method for BRCA and non-BRCA analysis sets. Median time to event and the corresponding 95% CI were provided. Descriptive summaries were provided for BRCA and non-BRCA analysis sets.

[1] = ALL, ITT (N=223), 300 mg once daily
[2] = ALL, ITT (N=223), 300 mg once daily, listed as niraparib
[3] = ALL, ITT (N=223), Kaplan-Meier, 300 mg once daily
[4] = ALL, ITT with baseline CTC >0 (N=202), 300 mg once daily
[5] = ALL, measurable ITT (N=123), 300 mg once daily
[6] = ALL, measurable ITT responders (N=31), 300 mg once daily
[7] = ALL, measurable ITT responders (N=31), Kaplan-Meier, 300 mg once daily
[8] = BRCA (n = 142), 300 mg once daily
[9] = BRCA, ITT (N=142), 300 mg once daily
[10] = BRCA, ITT (N=142), 300 mg once daily, listed as niraparib
[11] = BRCA, ITT (N=142), Kaplan-Meier, 300 mg once daily

NC(=O)c1cccc2cn(-c3ccc([C@@H]4CCCNC4)cc3)nc12 [Niraparib, 2-[4-[(3S)-piperidin-3-yl]phenyl]-2H-indazole-7-carboxamide] was tested, and the “Duration of complete response in individual subjects” value (2 BRCA subjects with measurable disease and complete response, 300 mg once daily) was 9.7 months and 9.5 months, the “Time to PSA progression: 6-month event-free rate” value [1] was 0.328 and the “Time to PSA progression: 12-month event-free rate” value [1] was 0.053. For the same molecule, the “Time to PSA progression: Censored, % of subjects” value [1] was “(44.4%)”, the “Time to PSA progression: Censored, number of subjects” value [1] was 99 and the “Time to PSA progression: Event, % of subjects” value [1] was “(55.6%)”. For the same molecule, the “Time to PSA progression: Event, number of subjects” value [1] was 124, the “Time to radiographic progression: 6-month event-free rate” value [1] was 0.494 and the “Time to radiographic progression: 12-month event-free rate” value [1] was 0.170. For the same molecule, the “Time to radiographic progression: 18-month event-free rate” value [1] was 0.034, the “Time to radiographic progression: Censored, % of subjects” value [1] was “(39.9%)” and the “Time to radiographic progression: Censored, number of subjects” value [1] was 89. The “Time to radiographic progression: Event, % of subjects” value [1] was “(60.1%)”, the “Time to radiographic progression: Event, number of subjects” value [1] was 134 and the “Time to symptomatic skeletal event: 6-month event-free rate” value [1] was 0.830. The “Time to symptomatic skeletal event: 12-month event-free rate” value [1] was 0.511, the “Time to symptomatic skeletal event: 18-month event-free rate” value [1] was 0.297 and the “Time to symptomatic skeletal event: 24-month event-free rate” value [1] was 0.297. The “Time to symptomatic skeletal event: Censored, % of subjects” value [1] was “(70.9%)”, the “Time to symptomatic skeletal event: Censored, number of subjects” value [1] was 158 and the “Time to symptomatic skeletal event: Event, % of subjects” value [1] was “(29.1%)”. For the same molecule, the “Time to symptomatic skeletal event: Event, number of subjects” value [1] was 65, the “rPFS: 6-month event-free rate” value [1] was 0.475 and the “rPFS: 12-month event-free rate” value [1] was 0.155. The “rPFS: 18-month event-free rate” value [1] was 0.031, the “rPFS: Censored, % of subjects” value [1] was “(35.4%)” and the “rPFS: Censored, number of subjects” value [1] was 79. The “rPFS: Event, % of subjects” value [1] was “(64.6%)”, the “rPFS: Event, number of subjects” value [1] was 144 and the “Time to PSA progression: Event, % of subjects” value [2] was 56%. For the same molecule, the “Time to radiographic progression: Event, % of subjects” value [2] was 60%, the “Time to symptomatic skeletal event: Event, % of subjects” value [2] was 29% and the “Time to symptomatic skeletal event: Event, number of subjects” value [2] was “Sixty-five”. For the same molecule, the “rPFS: Event, % of subjects” value [2] was 65%, the “Time to PSA progression: time to event, 25th percentile” value [3] was 2.83 months and the “Time to PSA progression: time to event, Median” value [3] was 4.63 months. For the same molecule, the “Time to radiographic progression: time to event, 25th percentile” value [3] was 2.76 months, the “Time to radiographic progression: time to event, 75th percentile” value [3] was 11.07 months and the “Time to radiographic progression: time to event, Median” value [3] was 5.78 months. The “Time to symptomatic skeletal event (SSE): time to event, Median” value [3] was 12.88 months, the “Time to symptomatic skeletal event: time to event, 25th percentile” value [3] was 6.97 months and the “rPFS: time to event, 25th percentile” value [3] was 2.07 months. The “rPFS: time to event, 75th percentile” value [3] was 11.01 months, the “CTC Response (CTC = 0 at week 8), % of subjects” value [4] was “(18.3%)” and the “CTC Response (CTC = 0 at week 8), number of subjects” value [4] was 37. The “Best Overall Response: Complete Response (CR), % of subjects” value [5] was 1.6%, the “Best Overall Response: Complete Response (CR), number of subjects” value [5] was 2 and the “Best Overall Response: Not Available (NA), % of subjects” value [5] was 12.2%. For the same molecule, the “Best Overall Response: Not Available (NA), number of subjects” value [5] was 15, the “Best Overall Response: Partial Response (PR), % of subjects” value [5] was 23.6% and the “Best Overall Response: Partial Response (PR), number of subjects” value [5] was 29. The “Best Overall Response: Progressive Disease (PD), % of subjects” value [5] was 25.2%, the “Best Overall Response: Progressive Disease (PD), number of subjects” value [5] was 31 and the “Best Overall Response: Stable Disease (SD), % of subjects” value [5] was 37.4%. For the same molecule, the “Best Overall Response: Stable Disease (SD), number of subjects” value [5] was 46, the “ORR (objective response rate, RECIST 1.1, no bone progression per PCWG3), % of subjects” value [5] was 25.2% and the “ORR (objective response rate, RECIST 1.1, no bone progression per PCWG3), number of subjects” value [5] was 31. For the same molecule, the “Objective response confirmed: Complete Response (CR), % of subjects” value [5] was 1.6%, the “Objective response confirmed: Complete Response (CR), number of subjects” value [5] was 2 and the “Objective response confirmed: Partial Response (PR), % of subjects” value [5] was 23.6%. For the same molecule, the “Objective response confirmed: Partial Response (PR), number of subjects” value [5] was 29, the “Duration of objective response: 6-month event-free rate” value [6] was 0.471 and the “Duration of objective response: 12-month event-free rate” value [6] was 0.000. For the same molecule, the “Duration of objective response: 18-month event-free rate” value [6] was 0.000, the “Duration of objective response: 24-month event-free rate” value [6] was 0.000 and the “Duration of objective response: Censored, % of subjects” value [6] was “(22.6%)”. The “Duration of objective response: Censored, number of subjects” value [6] was 7, the “Duration of objective response: Event, % of subjects” value [6] was “(77.4%)” and the “Duration of objective response: Event, number of subjects” value [6] was 24. For the same molecule, the “Duration of objective response: time to event, 25th percentile” value [7] was 3.75 months, the “Duration of objective response: time to event, 75th percentile” value [7] was 7.20 months and the “Duration of objective response: time to event, Median” value [7] was 5.55 months. The “CRR (composite response rate), % of subjects” value [8] was 57.7%, the “CRR (composite response rate), number of subjects” value [8] was 82 and the “PSA50 (≥50% decline in prostate-specific antigen), % of subjects” value [8] was 43.0%. For the same molecule, the “PSA50 (≥50% decline in prostate-specific antigen), number of subjects” value [8] was 61, the “Median rPFS in the BRCA cohort relative to the non-BRCA cohort” value (BRCA vs non-BRCA cohort) was “approximately double” and the “Time to PSA progression: 6-month event-free rate” value [9] was 0.393. For the same molecule, the “Time to PSA progression: 12-month event-free rate” value [9] was 0.067, the “Time to PSA progression: Censored, % of subjects” value [9] was “(40.1%)” and the “Time to PSA progression: Event, % of subjects” value [9] was “(59.9%)”. The “Time to radiographic progression: 6-month event-free rate” value [9] was 0.593, the “Time to radiographic progression: 12-month event-free rate” value [9] was 0.234 and the “Time to radiographic progression: 18-month event-free rate” value [9] was 0.046. The “Time to radiographic progression: Censored, % of subjects” value [9] was “(43.0%)”, the “Time to radiographic progression: Censored, number of subjects” value [9] was 61 and the “Time to radiographic progression: Event, % of subjects” value [9] was “(57.0%)”. For the same molecule, the “Time to radiographic progression: Event, number of subjects” value [9] was 81, the “Time to symptomatic skeletal event: 6-month event-free rate” value [9] was 0.844 and the “Time to symptomatic skeletal event: 12-month event-free rate” value [9] was 0.543. For the same molecule, the “Time to symptomatic skeletal event: 18-month event-free rate” value [9] was 0.323, the “Time to symptomatic skeletal event: 24-month event-free rate” value [9] was 0.323 and the “Time to symptomatic skeletal event: Censored, % of subjects” value [9] was “(67.6%)”. The “Time to symptomatic skeletal event: Censored, number of subjects” value [9] was 96, the “Time to symptomatic skeletal event: Event, % of subjects” value [9] was “(32.4%)” and the “rPFS: 6-month event-free rate” value [9] was 0.572. For the same molecule, the “rPFS: 12-month event-free rate” value [9] was 0.215, the “rPFS: 18-month event-free rate” value [9] was 0.043 and the “rPFS: Censored, % of subjects” value [9] was “(38.7%)”. For the same molecule, the “rPFS: Censored, number of subjects” value [9] was 55, the “rPFS: Event, % of subjects” value [9] was “(61.3%)” and the “rPFS: Event, number of subjects” value [9] was 87. For the same molecule, the “Time to PSA progression: Event, % of subjects” value [10] was 60%, the “rPFS: Event, % of subjects” value [10] was 61% and the “Time to PSA progression: time to event, 25th percentile” value [11] was 3.48 months. For the same molecule, the “Time to PSA progression: time to event, 75th percentile” value [11] was 11.07 months.
